We go through 22 compounds from US20260001893A1, “SMALL MOLECULE MODULATORS OF STAT6” (Gilead Sciences, Inc., priority 2024, published 2026).

Assay [1] concerns the target T1, Human STAT6 (truncated, aa122-658, with N-terminal His-tag) (Homo sapiens, UniProt P42226).
T1 construct: Human STAT6 (truncated, aa122-658, with N-terminal His-tag, expressed in insect cells); His-tag (N); made in house; host or cells: insect cells
T1 sequence (P42226 122-658): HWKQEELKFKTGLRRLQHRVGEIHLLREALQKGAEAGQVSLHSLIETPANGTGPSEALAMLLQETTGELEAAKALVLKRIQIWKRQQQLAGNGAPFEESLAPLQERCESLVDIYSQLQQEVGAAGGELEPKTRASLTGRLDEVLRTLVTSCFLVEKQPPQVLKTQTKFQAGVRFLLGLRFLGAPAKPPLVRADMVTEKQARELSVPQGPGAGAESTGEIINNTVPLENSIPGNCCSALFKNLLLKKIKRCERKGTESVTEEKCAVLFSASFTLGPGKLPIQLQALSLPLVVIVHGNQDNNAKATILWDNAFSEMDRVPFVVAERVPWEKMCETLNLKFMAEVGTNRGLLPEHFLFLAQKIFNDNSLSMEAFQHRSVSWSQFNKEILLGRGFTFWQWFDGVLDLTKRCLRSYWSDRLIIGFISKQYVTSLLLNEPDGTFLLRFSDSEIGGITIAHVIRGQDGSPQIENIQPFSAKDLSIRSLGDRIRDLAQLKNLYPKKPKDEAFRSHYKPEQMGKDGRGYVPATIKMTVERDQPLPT
The assay can be described thus: Surface plasmon resonance (SPR) assay, binding to human STAT6. The conditions noted are these: Biacore 8K, 25° C, immobilized human STAT6 on CM5 chip, multi-cycle kinetics; geometric mean. Here is the method:
Surface Plasmon Resonance Assay
Biacore instruments from the 8K-series (Cytiva) were used, and measurements were performed at 25° C. Human STAT6 (truncated, aa122-658, with N-terminal His-tag, expressed in insect cells) was immobilized in the active flow cells on a CM5 chip using amine-coupling (default settings) at 10 μg/ml in 10 mM acetate buffer pH 5.5, at a contact time of 120-420 sec. and a flow rate of 10 μl/min. Reference flow cells were deactivated using blank immobilization. PBS-P+(Cytiva) supplemented with 2% DMSO was used as running buffer, and solvent correction was applied. Compounds were tested by multi-cycle kinetics injections using a contact time of 60 sec., dissociation time of up to 300 sec., and a flow rate of 30 μl/min.
Solvent-corrected, reference-subtracted and blank-corrected data was processed and binding isotherms were fitted according to a single report point from each sensorgram (Standard: Late binding (5 sec. before injection end); alternative: Earlier report point according to binding profile). Data fitting was done both with unfixed Rmax and with Rmax fixed to the theoretical value* assuming 1:1 binding to allow processing of data from both weak and strong binders as well as to evaluate binding stoichiometry.
Positive controls were run at the beginning, during, and at the end of the screen to evaluate surface activity.
*Equation for calculation of the theoretical Rmax(Theoretical Rmax=(MW Analyte/MW Ligand)×immobilization level).
On the technique in general: Surface plasmon resonance follows binding to a sensor surface in real time, without labels.

Assay [2] relates to Eotaxin-3 (CCL26) release in human whole blood stimulated with IL-4. The assay is described as follows: Human whole blood eotaxin-3 assay (IL-4 stimulated eotaxin-3 release). In kind it is cell-based. The conditions noted are these: human whole blood stimulated with recombinant human IL-4, 48 h, geometric mean; for EC50: inhibition of eotaxin-3 release, given for test compounds with >80% Emax. A digest of the protocol: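 Eotaxin-3 (CCL26) release was quantified by MSD immunoassay in supernatants of human heparinised whole blood after 48 h at 37° C with IL-4 ([…] final). Compounds, in 4-fold dilutions at 0.5% DMSO, were added 2 h before stimulation.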

For the compound `CN(C)C(=O)c1ccc(C2CCN(Cc3cc4c(-n5ccc6[nH]nc(C(F)(F)F)c6c5=O)ccnc4n3C)C(=O)C2)cc1` (single isomer, unassigned) [Example 1ab1], the Kd (commonly the constant that tells how readily two partners part at equilibrium) in assay [1] stood at 61 nM. In addition, in assay [2] (Homo sapiens, 48 h, given for test compounds with <80% Emax), the maximal effect (Emax) (as a rule, the greatest response seen or fitted, relative to the assay's reference) lay within 30 to 40%.
As to `CN(C)C(=O)c1ccc(C2CCN(Cc3cc4c(-n5ccc6[nH]nc(C(F)(F)F)c6c5=O)ccnc4n3C)C(=O)C2)cc1` (single isomer, unassigned) [Example 1ab2], in assay [1], binding was put at a Kd of 37.6 nM. Besides, the “Eotaxin-3 Emax (%)” value in assay [2] (given for test compounds with <80% Emax) is reported as 50-60%.
In turn, `CNc1ccn(-c2ccnc3c2cc(CN2CC[C@H](c4ccc(C(=O)N(C)C)cc4)[C@@H](F)C2)n3C)c(=O)c1` (single isomer, unassigned) [Example 1f3] returned a Kd in assay [1] of 32.5 nM. For the same compound, the EC50 (commonly the concentration needed to bring the measured effect to its halfway point) in assay [2] (Homo sapiens, 48 h) is 289 nM.
Take `CNc1ccn(-c2ccnc3c2cc(CN2CC[C@@H](c4ccc(C(=O)N(C)C)cc4)[C@H](F)C2)n3C)c(=O)c1` (single isomer, unassigned) [Example 1f4]: in assay [1], binding was characterised by a dissociation constant (Kd) of 32.2 nM. The EC50 in assay [2] (Homo sapiens, 48 h) amounted to 205 nM.
As for `CNc1ccn(-c2ccnc3c2cc(CN2CC[C@@H](c4ccc(C(=O)N(C)C)cc4)[C@@H](F)C2)n3C)c(=O)c1` (single isomer, unassigned) [Example 1f7], the Kd in assay [1] came to 21.7 nM. For the same compound, the EC50 in assay [2] (Homo sapiens, 48 h) was determined as 245 nM.
The compound `CNc1ccn(-c2ccnc3c2cc([C@@H](C)N2CCC(c4ccc(C(=O)N(C)C)cc4)CC2)n3C)c(=O)c1` (single isomer, unassigned) [Example 1m73] had a Kd in assay [1] of 12.1 nM. Also, the EC50 in assay [2] (Homo sapiens, 48 h) was 26 nM.
`CNc1ccn(-c2ccnc3c2cc(CN2CC[C@H](c4ccc(C(=O)N(C)C)cc4)C(F)(F)C2)n3C)c(=O)c1` (stereo in doubt) [Example 1f1, N,N-Dimethyl-4-[(4R)-3,3-difluoro-1-[[1-methyl-4-[4-(methylamino)-2-oxo-1-pyridyl]pyrrolo[2,3-b]pyridin-2-yl]methyl]-4-piperidyl]-benzamide] gave a Kd in assay [1] of 15 nM. Besides, the EC50 in assay [2] (Homo sapiens, 48 h) was 98.5 nM.
For `CN(C)C(=O)c1ccc(C2CC[N+]([O-])(Cc3cc4c(-n5ccc(N)cc5=O)ccnc4n3C)CC2)cc1` (centres unmarked) [Example 1d32, 4-[1-[[4-(4-Amino-2-oxo-1-pyridyl)-1-methyl-pyrrolo[2,3-b]pyridin-2-yl]methyl]-1-oxido-piperidin-1-ium-4-yl]-N,N-dimethyl-benzamide], in assay [1], binding was characterised by a dissociation constant (Kd) of 333 nM.
For the compound `CN(C)C(=O)c1ccc(C2CC[N+]([O-])(Cc3cc4c(-n5ccc6c(c5=O)CCN6)ccnc4n3C)CC2)cc1` (centres unmarked) [Example 1d33, N,N-Dimethyl-4-[1-[[1-methyl-4-(4-oxo-2,3-dihydro-1H-pyrrolo[3,2-c]pyridin-5-yl)pyrrolo[2,3-b]pyridin-2-yl]methyl]-1-oxido-piperidin-1-ium-4-yl]benzamide], the Kd in assay [1] is 75.1 nM.
Take `CN(C)C(=O)c1ccc(C2CCN(Cc3cc4c(-n5ccc6c(c5=O)CCCN6)ccnc4n3C)CC2)cc1` [Example 1d35, N,N-Dimethyl-4-[1-[[1-methyl-4-(5-oxo-1,2,3,4-tetrahydro-1,6-naphthyridin-6-yl)pyrrolo[2,3-b]pyridin-2-yl]methyl]-4-piperidyl]benzamide]: in assay [1], the affinity, expressed as Kd, was 25.1 nM. This Kd lies about 3-fold lower than the previous one.
Still for that read-out and setting: the figure for `CNc1ccn(-c2ccnc3c2cc(CN2CCC(c4ccc(C(=O)N(C)C)cc4C(F)(F)F)CC2)n3C)c(=O)c1` [Example 1d38, N,N-Dimethyl-4-[1-[[1-methyl-4-[4-(methylamino)-2-oxo-1-pyridyl]pyrrolo[2,3-b]pyridin-2-yl]methyl]-4-piperidyl]-3-(trifluoromethyl)benzamide] is 570 nM; for `CNc1ccn(-c2ccnc3c2cc(CN2CCC(F)(c4ccc(C(=O)N(C)C)cc4)CC2)n3C)c(=O)c1` [Example 1f5, 4-[4-Fluoro-1-[[1-methyl-4-[4-(methylamino)-2-oxo-1-pyridyl]pyrrolo-[2,3-b]pyridin-2-yl]methyl]-4-piperidyl]-N,N-dimethyl-benzamide] it is 156 nM.
For the compound `CNc1ccn(-c2ccnc3c2cc(CN2CCN(c4ccc(C(=O)N(C)C)cc4)C[C@@H]2C)n3C)c(=O)c1` [Example 1m1, (S)—N,N-dimethyl-4-(3-methyl-4-((1-methyl-4-(4-(methylamino)-2-oxopyridin-1 (2H)-yl)-1H-pyrrolo[2,3-b]pyridin-2-yl)methyl)piperazin-1-yl)benzamide], in assay [1], binding was characterised by a dissociation constant (Kd) of 58.6 nM.
Same read-out and setting: the figure for `CNc1ccn(-c2ccnc3c2cc(CN2CCN(c4ccc(C(=O)N(C)C)cc4)C[C@H]2C)n3C)c(=O)c1` [Example 1m2, (R)—N,N-Dimethyl-4-(3-methyl-4-((1-methyl-4-(4-(methylamino)-2-oxopyridin-1 (2H)-yl)-1H-pyrrolo[2,3-b]pyridin-2-yl)methyl)piperazin-1-yl)benzamide] is 188 nM.
With `CNc1ccn(-c2ccnc3c2cc(CN2CCN(c4ccc(C(=O)N(C)C)cc4)CC2)n3C)c(=O)c1` [Example 1m3, N,N-Dimethyl-4-(4-((1-methyl-4-(4-(methylamino)-2-oxopyridin-1 (2H)-yl)-1H-pyrrolo[2,3-b]pyridin-2-yl)methyl)piperazin-1-yl)benzamide], the affinity in assay [1], expressed as Kd, was 244 nM.
On the same count and under the same terms, the figure for `CNc1ccn(-c2ccnc3c2cc(CN2CCN(c4ccc(C(=O)N(C)C)cn4)CC2)n3C)c(=O)c1` [Example 1m7, N,N-Dimethyl-6-(4-((1-methyl-4-(4-(methylamino)-2-oxopyridin-1 (2H)-yl)-1H-pyrrolo[2,3-b]pyridin-2-yl)methyl)piperazin-1-yl)nicotinamide] is 735 nM; for `[2H]C([2H])([2H])N(C(=O)c1ccc(N2CCN(Cc3cc4c(-n5ccc(NC)cc5=O)ccnc4n3C)CC2)nc1)C([2H])([2H])[2H]` [Example 1m8, N,N-Bis(methyl-d3)-6-(4-((1-methyl-4-(4-(methylamino)-2-oxopyridin-1 (2H)-yl)-1H-pyrrolo[2,3-b]pyridin-2-yl)methyl)piperazin-1-yl)nicotinamide] it is 640 nM.
As for `CNc1ccn(-c2ccnc3c2cc(CN2CCC(c4ccc(C(=O)N(C)C)cn4)CC2)n3C)c(=O)c1` [Example 1m11, N,N-Dimethyl-6-(1-((1-methyl-4-(4-(methylamino)-2-oxopyridin-1 (2H)-yl)-1H-pyrrolo[2,3-b]pyridin-2-yl)methyl)piperidin-4-yl)nicotinamide], the Kd in assay [1] amounted to 113 nM.
In assay [1], `CNc1ccn(-c2ccnc3c2cc(CN2CC=C(c4ccc(C(=O)N(C)C)cn4)CC2)n3C)c(=O)c1` [Example 1m13, N,N-Dimethyl-1′-((1-methyl-4-(4-(methylamino)-2-oxopyridin-1 (2H)-yl)-1H-pyrrolo[2,3-b]pyridin-2-yl)methyl)-1′, 2′, 3′, 6′-tetrahydro-[2,4′-bipyridine]-5-carboxamide] gave a Kd of 167 nM.
In assay [1], `CNc1ccn(-c2ccnc3c2cc(CN2CC=C(c4ncc(C(=O)N(C)C)cc4C)CC2)n3C)c(=O)c1` [Example 1m14, N,N,3-Trimethyl-1′-((1-methyl-4-(4-(methylamino)-2-oxopyridin-1 (2H)-yl)-1H-pyrrolo[2,3-b]pyridin-2-yl)methyl)-1′, 2′, 3′, 6′-tetrahydro-[2,4′-bipyridine]-5-carboxamide] gave a Kd of 60.3 nM.
As for `CNc1ccn(-c2ccnc3c2cc(CN2CCC(c4ncc(C(=O)N(C)C)cc4C)CC2)n3C)c(=O)c1` [Example 1m15, N,N,5-Trimethyl-6-(1-((1-methyl-4-(4-(methylamino)-2-oxopyridin-1 (2H)-yl)-1H-pyrrolo[2,3-b]pyridin-2-yl)methyl)piperidin-4-yl)nicotinamide], the dissociation constant Kd in assay [1] amounted to 572 nM.
`CNc1ccn(-c2ccnc3c2cc(C(C)N2CCC(c4ccc(C(=O)N(C)C)cc4)CC2)n3C)c(=O)c1` (centres unmarked) [Example 1m71, N,N-dimethyl-4-(1-(1-(1-methyl-4-(4-(methylamino)-2-oxopyridin-1 (2H)-yl)-1H-pyrrolo[2,3-b]pyridin-2-yl)ethyl)piperidin-4-yl)benzamide] came in with a Kd in assay [1] of 16.4 nM.
